Like-named read-outs stand apart in the source and are kept apart here.
Assays:
[1] = molecular target: T1, HDAC1 (Homo sapiens, UniProt Q13547); assay: In vitro HDAC1 enzymatic activity inhibition (Lys-Ac-AMC substrate); format: biochemical
T1 construct: purchased BPS Bioscience
Description: Determining the inhibition capability to HDAC activity through the substrate method of fluorophore 4-amino-7-coumarin coupled Ac-peptide (Lys-Ac-AMC). HDAC1 protein is purchased from BPS Bioscience Company; the reaction buffer system is a modified tris(hydroxymethyl)aminomethane (TRIS) buffer (pH7.0). All small molecule compounds are prepared and dissolved by 100% DMSO (dimethyl sulfoxide). HDAC is prepared into the buffer as per certain concentration to be served as the enzyme solution; trypsin and the fluorophore 4-amino-7-coumarin coupled Ac-peptide substrate are prepared into the buffer as per certain concentration to be served as the substrate solution. Adding the compound into the reaction wells of the 384 well plate at the designed concentration, then adding 15 μL HDAC solution into the reaction wells (adding 15 μL blank buffer into the control well 0) for incubation under ambient temperature for 15 min; then adding 10 μL substrate solution to start reaction; during the reaction, the final concentration of HDAC1 protein is 6 nM, trypsin 0.05 μM and Ac-peptide 8 μM.
(§1) Calculating the value of IC50 as per the formula: Y=background data+(top data−background data)/(1+10^((Log IC50−X)*rate of curve))
Where, Y refers to the inhibition ratio (%) and X refers to the compound concentration. […]
Analyzing the result data with the software GraphPad Prism and calculating the value of IC50 as per the formula: Y=background data+(top data−background data)/(1+10^((Log IC50−X)*rate of curve)). Where, Y refers to the inhibition ratio (%) and X refers to the compound concentration.

[2] = molecular target: T2, PI3Kα (Homo sapiens, UniProt P42336); assay: PI3Kα activity inhibition (Kinase-Glo); format: biochemical; conditions: Table 1, graded; read-out: PI3Kα IC50
T2 construct: purchased Invitrogen PV4788
T2 sequence (P42336 whole entry, species assumed): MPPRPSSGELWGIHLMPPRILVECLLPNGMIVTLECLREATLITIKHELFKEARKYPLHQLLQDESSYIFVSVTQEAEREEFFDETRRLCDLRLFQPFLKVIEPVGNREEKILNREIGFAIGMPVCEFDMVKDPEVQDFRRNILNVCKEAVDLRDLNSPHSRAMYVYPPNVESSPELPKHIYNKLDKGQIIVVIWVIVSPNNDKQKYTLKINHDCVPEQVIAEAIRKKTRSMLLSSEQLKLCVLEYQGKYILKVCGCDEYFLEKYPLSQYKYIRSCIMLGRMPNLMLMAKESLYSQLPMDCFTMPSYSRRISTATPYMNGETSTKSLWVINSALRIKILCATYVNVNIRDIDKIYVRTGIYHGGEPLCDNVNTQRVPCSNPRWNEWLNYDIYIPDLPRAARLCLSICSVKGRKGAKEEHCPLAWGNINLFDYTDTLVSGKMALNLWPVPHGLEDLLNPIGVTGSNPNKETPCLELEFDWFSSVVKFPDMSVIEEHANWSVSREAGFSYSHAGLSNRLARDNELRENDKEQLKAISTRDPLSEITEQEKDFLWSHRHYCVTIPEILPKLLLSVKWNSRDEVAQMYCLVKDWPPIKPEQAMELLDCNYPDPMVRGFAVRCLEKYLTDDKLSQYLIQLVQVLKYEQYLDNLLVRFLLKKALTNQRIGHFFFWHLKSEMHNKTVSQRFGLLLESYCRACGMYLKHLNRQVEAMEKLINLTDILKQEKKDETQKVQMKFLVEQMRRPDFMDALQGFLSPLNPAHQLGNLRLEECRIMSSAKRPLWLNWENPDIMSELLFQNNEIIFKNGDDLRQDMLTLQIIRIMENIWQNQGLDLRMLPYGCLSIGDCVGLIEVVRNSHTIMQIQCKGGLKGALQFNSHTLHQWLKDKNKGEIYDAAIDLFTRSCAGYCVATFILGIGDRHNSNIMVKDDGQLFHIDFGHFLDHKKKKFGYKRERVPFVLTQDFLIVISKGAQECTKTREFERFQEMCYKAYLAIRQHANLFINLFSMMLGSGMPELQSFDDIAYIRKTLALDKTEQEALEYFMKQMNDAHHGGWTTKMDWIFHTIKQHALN
T2 sequence (P27986 whole entry partner, species assumed): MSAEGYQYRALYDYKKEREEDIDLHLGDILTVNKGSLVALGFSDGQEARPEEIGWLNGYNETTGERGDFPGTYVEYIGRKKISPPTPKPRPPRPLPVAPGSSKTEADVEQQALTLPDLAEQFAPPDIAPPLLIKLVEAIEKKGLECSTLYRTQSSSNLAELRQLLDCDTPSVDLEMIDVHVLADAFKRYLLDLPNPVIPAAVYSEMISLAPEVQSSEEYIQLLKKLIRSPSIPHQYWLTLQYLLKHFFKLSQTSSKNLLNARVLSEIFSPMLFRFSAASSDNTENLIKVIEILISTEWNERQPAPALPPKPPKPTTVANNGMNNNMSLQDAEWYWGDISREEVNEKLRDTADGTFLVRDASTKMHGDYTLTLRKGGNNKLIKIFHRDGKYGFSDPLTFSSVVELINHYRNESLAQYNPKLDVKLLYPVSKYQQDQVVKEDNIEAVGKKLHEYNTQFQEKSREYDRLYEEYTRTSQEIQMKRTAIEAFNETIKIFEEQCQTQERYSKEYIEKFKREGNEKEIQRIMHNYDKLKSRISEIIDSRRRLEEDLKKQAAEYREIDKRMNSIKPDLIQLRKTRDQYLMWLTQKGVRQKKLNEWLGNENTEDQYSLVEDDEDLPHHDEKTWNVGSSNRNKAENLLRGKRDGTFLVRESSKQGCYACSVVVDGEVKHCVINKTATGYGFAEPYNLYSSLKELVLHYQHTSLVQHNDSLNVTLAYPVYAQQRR
Description: Detecting the inhibition capability of the compound to PI3Kα and PI3Kδ activities with Kinase-Glo (purchased from Promege Company; Catalog No.: V3771). […] The reaction system also comprises substrates as PIP2 (4, 5-diphosphoinositide, purchased from Life Technologies Company) and ATP (triphosadenine, purchased from Sigma Company). The reaction buffer system comprises 50 mM HEPES (4-hydroxyethylpiperazine ethane sulfonic acid), 3 mM MgCl2, 1 mM EGTA (ethylene glycol bis(2-amino ethylether)quadrol), 100 mM NaCl, 0.03% CHAPS (3-[3-(cholamidopropyl)dimethylamino]-1-propanesulfonic acid), 2 mM DTT (dithiothreitol). The pH value of the reaction buffer is 7.5. […] Mixing the system evenly for incubation under ambient temperature (for 1 h in PI3Kα test and for 2 h in PI3Kδ test). After incubation, adding 10 μL Kinase-Glo which has been preheated to ambient temperature into each reaction well to terminate the reaction; shaking it in dark place for 15 min after it is mixed evenly, then measuring the fluorescence intensity with a microplate reader and analyzing the result data with the software GraphPad Prism.
as §1
Where, Y refers to the inhibition ratio (%) and X refers to the compound concentration.

[3] = tested on: MV4-11 cells (acute myeloid leukemia); assay: Cell proliferation inhibition, MV4-11 (cck-8); format: cell-based; conditions: Homo sapiens
Description: (§2) The tumor cell lines are purchased from American Type Culture Collection (ATCC) and cultivated to the status of logarithmic growth as per the cultural method recommended by ATCC. The cells in logarithmic phase are spread on a 96 well plate as per 2000-3000/well; as for anchorage-dependent cells, the compound should be added in the test wells at certain concentration for incubation for 96 h after cell adherence. Determining cell proliferation activities with method MTT for tumor cells representing solid tumor model and with method cck-8 for tumor cells representing hematologic tumor model, and analyzing the result data with the software GraphPad Prism.
(§3) Calculating the value of IC50 as per the formula: Y=background data+(top data−background data)/(1+10^((Log IC50−X)*rate of curve)). Where, Y refers to the inhibition ratio (%) and X refers to the compound concentration.

[4] = tested on: hct116 cells (colon cancer); assay: Cell proliferation inhibition, hct116 (MTT); format: cell-based; conditions: Homo sapiens, HCT-116
Description: as §2, §3

[5] = tested on: A2780s cells (ovarian cancer); assay: Cell proliferation inhibition, A2780s (MTT); format: cell-based; conditions: Homo sapiens
Description: as §2, §3

[6] = Table 1, graded, read-out: HDAC1 IC50
[7] = 96 h incubation, read-out: Proliferation IC50, Acute myeloid leukemia MV4-11
[8] = 96 h incubation, read-out: Proliferation IC50, Colon cancer hct116
[9] = 96 h incubation, read-out: Proliferation IC50, Ovarian cancer A2780s
[10] = read-out: IC50 to proliferation of MV4-11 cells
[11] = read-out: IC50 to proliferation of hct116 cells
[12] = read-out: IC50 to proliferation of A2780s cells
[13] = read-out: inhibition value IC50 to the activity of HDAC1

T1 sequence (Q13547 whole entry, species assumed): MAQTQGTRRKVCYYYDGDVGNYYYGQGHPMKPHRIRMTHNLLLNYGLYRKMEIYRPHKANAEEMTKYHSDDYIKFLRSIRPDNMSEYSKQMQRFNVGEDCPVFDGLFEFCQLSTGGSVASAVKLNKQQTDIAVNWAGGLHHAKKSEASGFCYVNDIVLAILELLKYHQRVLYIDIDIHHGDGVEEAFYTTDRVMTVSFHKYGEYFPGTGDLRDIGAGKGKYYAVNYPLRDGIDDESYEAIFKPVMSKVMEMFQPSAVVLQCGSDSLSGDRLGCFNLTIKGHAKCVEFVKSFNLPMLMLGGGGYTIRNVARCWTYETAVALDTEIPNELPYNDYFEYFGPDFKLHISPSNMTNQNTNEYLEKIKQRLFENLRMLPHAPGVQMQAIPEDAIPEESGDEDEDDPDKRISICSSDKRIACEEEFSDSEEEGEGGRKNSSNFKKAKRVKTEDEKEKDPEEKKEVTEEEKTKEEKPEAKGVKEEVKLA

CCCCN(Cc1nc2c(N3CCOCC3)nc(-c3ccc4[nH]ncc4c3)nc2n1C)c1ncc(C(=O)NO)cn1 [CLJ-17, N-hydroxy-2-(((2-(1H-indazole-5-yl)-9-methyl-6-morpholine-9H-purine-8-yl))methyl(butyl)amino)pyrimidine-5-formamide]
IC50 [1, 6]: 100 to 1000 nM | IC50 [2]: > 10000 nM | IC50 [3, 7]: > 1000 nM | IC50 [4, 8]: > 1000 nM | IC50 [5, 9]: > 1000 nM

CN(Cc1nc2c(N3CCOCC3)nc(-c3cccs3)nc2n1C)c1ncc(C(=O)NO)cn1 [CLJ-18, 2-(((2-(2-thienyl)-9-methyl-6-morpholine-9H-purine-8-yl))methyl(methyl)amino)-N-hydroxyl pyrimidine-5-formamide]
IC50 [1, 6]: < 100 nM | IC50 [2]: > 10000 nM | IC50 [3, 7]: 0.1 to 10 nM | IC50 [4, 8]: 0.1 to 10 nM | IC50 [5, 9]: 10 to 100 nM

Cc1ccsc1-c1nc(N2CCOCC2)c2nc(CN(C)c3ncc(C(=O)NO)cn3)n(C)c2n1 [CLJ-19, 2-(((2-(3-methyl-2-thienyl)-9-methyl-6-morpholine-9H-purine-8-yl))methyl(methyl)amino)-N-hydroxyl pyrimidine-5-formamide]
IC50 [1, 6]: < 100 nM | IC50 [2]: > 10000 nM | IC50 [3, 7]: 0.1 to 10 nM | IC50 [4, 8]: 0.1 to 10 nM | IC50 [5, 9]: 10 to 100 nM

CN(Cc1nc2c(N3CCOCC3)nc(-c3ccc(C(=O)O)s3)nc2n1C)c1ncc(C(=O)NO)cn1 [CLJ-20, 2-(((2-(5-carboxyl-2-thienyl)-9-methyl-6-morpholine-9H-purine-8-yl))methyl(methyl)amino)-N-hydroxyl pyrimidine-5-formamide]
IC50 [1, 6]: < 100 nM | IC50 [2]: > 10000 nM | IC50 [3, 7]: 0.1 to 10 nM | IC50 [4, 8]: 0.1 to 10 nM | IC50 [5, 9]: 10 to 100 nM

CCCCc1ccc(-c2nc(N3CCOCC3)c3nc(CN(C)c4ncc(C(=O)NO)cn4)n(C)c3n2)s1 [CLJ-21, 2-(((2-(5-n-butyl-2-thienyl)-9-methyl-6-morpholine-9H-purine-8-yl))methyl(methyl)amino)-N-hydroxyl pyrimidine-5-formamide]
IC50 [1, 6]: < 100 nM | IC50 [2]: > 10000 nM | IC50 [3, 7]: 0.1 to 10 nM | IC50 [3, 10]: 0.1 to 10 nM | IC50 [4, 8]: 0.1 to 10 nM | IC50 [4, 11]: 0.1 to 10 nM | IC50 [5, 9]: 0.1 to 10 nM | IC50 [5, 12]: 0.1 to 10 nM

CN(Cc1nc2c(N3CCOCC3)nc(-c3ccsc3)nc2n1C)c1ncc(C(=O)NO)cn1 [CLJ-22, 2-(((2-(3-thienyl)-9-methyl-6-morpholine-9H-purine-8-yl))methyl(methyl)amino)-N-hydroxyl pyrimidine-5-formamide]
IC50 [1, 6]: < 1 nM | IC50 [1, 13]: < 1 nM | IC50 [2]: > 10000 nM | IC50 [3, 7]: 0.1 to 10 nM | IC50 [3, 10]: 0.1 to 10 nM | IC50 [4, 8]: 0.1 to 10 nM | IC50 [4, 11]: 0.1 to 10 nM | IC50 [5, 9]: 0.1 to 10 nM | IC50 [5, 12]: 0.1 to 10 nM

Cc1cscc1-c1nc(N2CCOCC2)c2nc(CN(C)c3ncc(C(=O)NO)cn3)n(C)c2n1 [CLJ-23]
IC50 [1, 6]: < 100 nM | IC50 [2]: > 10000 nM | IC50 [3, 7]: 0.1 to 10 nM | IC50 [3, 10]: 0.1 to 10 nM | IC50 [4, 8]: 0.1 to 10 nM | IC50 [4, 11]: 0.1 to 10 nM | IC50 [5, 9]: 0.1 to 10 nM | IC50 [5, 12]: 0.1 to 10 nM

CN(Cc1nc2c(N3CCOCC3)nc(-c3ccc[nH]3)nc2n1C)c1ncc(C(=O)NO)cn1 [CLJ-24, 2-(((2-(1H-2-pyrrolyl)-9-methyl-6-morpholine-9H-purine-8-yl))methyl(methyl)amino)-N-hydroxyl pyrimidine-5-formamide]
IC50 [1, 6]: < 1 nM | IC50 [1, 13]: < 1 nM | IC50 [2]: 1000 to 10000 nM | IC50 [3, 7]: 0.1 to 10 nM | IC50 [3, 10]: 0.1 to 10 nM | IC50 [4, 8]: 0.1 to 10 nM | IC50 [4, 11]: 0.1 to 10 nM | IC50 [5, 9]: 0.1 to 10 nM | IC50 [5, 12]: 0.1 to 10 nM

CN(C)CCn1cc(-c2nc(N3CCOCC3)c3nc(CN(C)c4ncc(C(=O)NO)cn4)n(C)c3n2)cn1 [CLJ-25]
IC50 [1, 6]: < 100 nM | IC50 [2]: 1000 to 10000 nM | IC50 [3, 7]: 0.1 to 10 nM | IC50 [3, 10]: 0.1 to 10 nM | IC50 [4, 8]: 0.1 to 10 nM | IC50 [4, 11]: 0.1 to 10 nM | IC50 [5, 9]: 0.1 to 10 nM | IC50 [5, 12]: 0.1 to 10 nM

CN(Cc1nc2c(N3CCOCC3)nc(-c3cccc(O)c3)nc2n1C)c1ncc(C(=O)NO)cn1 [CLJ-27, 2-(((2-(3-hydroxyphenyl)-9-methyl-6-morpholine-9H-purine-8-yl))methyl(methyl)amino)-N-hydroxyl pyrimidine-5-formamide]
IC50 [1, 6]: < 1 nM | IC50 [1, 13]: < 1 nM | IC50 [2]: > 10000 nM | IC50 [3, 7]: 0.1 to 10 nM | IC50 [4, 8]: 10 to 100 nM | IC50 [5, 9]: 10 to 100 nM

CCn1c(CN(C)c2ncc(C(=O)NO)cn2)nc2c(N3CCOCC3)nc(-c3ccc(OC)cc3)nc21 [CLJ-30, 2-((9-ethyl-2(4-methoxyphenyl)-6-morpholino-9H-purine-8-yl)methyl)(methyl)amino-N-hydroxyl pyrimidine-5-formamide]
IC50 [1, 6]: < 100 nM | IC50 [2]: > 10000 nM | IC50 [3, 7]: 0.1 to 10 nM | IC50 [4, 8]: 10 to 100 nM | IC50 [5, 9]: 10 to 100 nM

COc1ccc(-c2nc(N3CCOCC3)c3nc(CN(C)c4ncc(C(=O)NO)cn4)n(C(C)C)c3n2)cc1 [CLJ-31]
IC50 [1, 6]: 100 to 1000 nM | IC50 [2]: > 10000 nM | IC50 [3, 7]: > 1000 nM | IC50 [4, 8]: > 1000 nM | IC50 [5, 9]: > 1000 nM

COc1ccc(-c2nc(N3CCOCC3)c3nc(CN(C)c4ncc(C(=O)NO)cn4)n(C4CCCC4)c3n2)cc1 [CLJ-32, 2-(((9-cyclopentyl-2(4-methoxyphenyl)-6-morpholine-9H-purine-8-yl)methyl)(methyl)amino)-N-hydroxyl pyrimidine-5-formamide]
IC50 [1, 6]: 100 to 1000 nM | IC50 [2]: > 10000 nM | IC50 [3, 7]: > 1000 nM | IC50 [4, 8]: > 1000 nM | IC50 [5, 9]: > 1000 nM

COc1cc(-c2nc(N3CCOCC3)c3nc(CN(C)c4ncc(C(=O)NO)cn4)n(C)c3n2)cc(OC)c1OC [CLJ-35, 2-(((2-(3,4,5-trimetoxyphenyl)-9-methyl-6-morpholine-9H-purine-8-yl))methyl(methyl)amino)-N-hydroxyl pyrimidine-5-formamide]
IC50 [1, 6]: < 100 nM | IC50 [2]: > 10000 nM | IC50 [3, 7]: 0.1 to 10 nM | IC50 [4, 8]: 10 to 100 nM | IC50 [5, 9]: 10 to 100 nM

CN(Cc1nc2c(N3CCOCC3)nc(-c3ccc4c(c3)OCO4)nc2n1C)c1ncc(C(=O)NO)cn1 [CLJ-36, 2-(((2-(benzo[d][1,3]dioxole-5-yl)-9-methyl-6-morpholine-9H-purine-8-yl))methyl(methyl)amino)-N-hydroxyl pyrimidine-5-formamide]
IC50 [1, 6]: < 1 nM | IC50 [1, 13]: < 1 nM | IC50 [2]: > 10000 nM | IC50 [3, 7]: 0.1 to 10 nM | IC50 [3, 10]: 0.1 to 10 nM | IC50 [4, 8]: 0.1 to 10 nM | IC50 [4, 11]: 0.1 to 10 nM | IC50 [5, 9]: 0.1 to 10 nM | IC50 [5, 12]: 0.1 to 10 nM

COc1ccc(C(F)(F)F)cc1-c1nc(N2CCOCC2)c2nc(CN(C)c3ncc(C(=O)NO)cn3)n(C)c2n1 [CLJ-38, 2-(((2-(2-methoxy-5-trifluoromethylphenyl)-9-methyl-6-morpholine-9H-purine-8-yl))methyl(methyl)amino)-N-hydroxyl pyrimidine-5-formamide]
IC50 [1, 6]: < 100 nM | IC50 [2]: > 10000 nM | IC50 [3, 7]: 0.1 to 10 nM | IC50 [3, 10]: < 10 nM | IC50 [4, 8]: 100 to 1000 nM | IC50 [4, 11]: > 100 nM | IC50 [5, 9]: 10 to 100 nM

CCNc1ccc(-c2nc(N3CCOCC3)c3nc(CN(C)c4ncc(C(=O)NO)cn4)n(C)c3n2)cc1 [CLJ-48]
IC50 [1, 6]: < 100 nM | IC50 [2]: > 10000 nM | IC50 [3, 7]: 0.1 to 10 nM | IC50 [3, 10]: 0.1 to 10 nM | IC50 [4, 8]: 0.1 to 10 nM | IC50 [4, 11]: 0.1 to 10 nM | IC50 [5, 9]: 0.1 to 10 nM | IC50 [5, 12]: 0.1 to 10 nM
